Measurements: patent US6737383B1, “Herbicidal oxadiazolidines” (priority 1999, dated 2004)

Experiments:
[1] = test system: cocklebur; experiment: Test B pre/postemergence cocklebur; type: in vivo, Xanthium strumarium
Summary of the method: (§1)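 Response is a visual 0-to-10 score relative to untreated plants, where 0 means no effect and 10 means complete control, taken twelve to sixteen days after application. Treatments went onto soil at planting and onto foliage of 1- to 4-leaf plants, using a surfactant-containing non-phytotoxic solvent.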

[2] = test system: bamyardgrass; experiment: Test B flood test barnyardgrass; type: in vivo, Echinochloa crus-galli
Summary of the method: (§2)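 Flood test on plants grown to the 2-leaf stage; treated plants kept in greenhouse twelve to sixteen days, then visually rated against controls on a 0 (no effect) to 10 (complete control) scale.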

[3] = test system: smallflower flatsedge; experiment: Test B flood test smallflower flatsedge; type: in vivo, Cyperus difformis
Summary of the method: as §2

[4] = test system: sugar beet; experiment: Test B pre/postemergence sugar beet; type: in vivo, Beta vulgaris
Summary of the method: as §1

[5] = Postemergence, Rate 250 g/ha, scale 0 to 10, 0 no effect, 10 complete control
[6] = Postemergence, Rate 1000 g/ha, scale 0 to 10 (0 no effect, 10 complete control)
[7] = Preemergence, Rate 250 g/ha, scale of 0 to 10 where 0 is no effect and 10 is complete control
[8] = Preemergence, Rate 500 g/ha, scale 0 (no effect) to 10 (complete control)
[9] = Rate 125 g/ha, Postemergence, scale 0 to 10, 0 no effect, 10 complete control
[10] = Rate 1000 g/ha, Preemergence, scale 0 to 10 (0 no effect, 10 complete control)
[11] = Rate 125 g/ha, Postemergence section (flood test species), scale 0 to 10, 0 no effect, 10 complete control
[12] = Rate 250 g/ha, headed Pre-emergence (flood test species), scale 0 to 10 (0 no effect, 10 complete control)
[13] = Rate 500 g/ha, headed Pre-emergence (flood test species), scale 0 to 10 (0 no effect, 10 complete control)
[14] = flood test, listed under Postemergence, Rate 250 g/ha, scale 0 to 10, 0 no effect, 10 complete control
[15] = Preemergence, Rate 125 g/ha, scale 0 to 10 (0 no effect, 10 complete control)
[16] = Postemergence, Rate 62 g/ha, scale 0 to 10, 0 is no effect, 10 is complete control
[17] = Postemergence, Rate 125 g/ha, scale of 0 to 10 where 0 is no effect and 10 is complete control
[18] = Preemergence, Rate 250 g/ha, scale 0 (no effect) to 10 (complete control)
[19] = Rate 62 g/ha, Preemergence, scale 0 to 10
[20] = Rate 250 g/ha, Postemergence, scale 0 to 10, 0 is no effect, 10 is complete control
[21] = Rate 500 g/ha, Postemergence, scale 0 to 10, 0 is no effect, 10 is complete control
[22] = Rate 500 g/ha, Preemergence, scale 0 to 10 (0 no effect, 10 complete control)
[23] = Pre-emergence, Rate 62 g/ha, scale 0 to 10, 0 is no effect, 10 is complete control
[24] = Rate 125 g/ha, Pre-emergence section (flood test species), scale 0 to 10, 0 no effect, 10 complete control
[25] = Rate 250 g/ha, Pre-emergence (flood test species), scale 0 to 10, 0 is no effect, 10 is complete control
[26] = Rate 500 g/ha, Pre-emergence section of Table B, 0 to 10 scale (0 no effect, 10 complete control)
[27] = Preemergence, Rate 62 g/ha, scale 0 to 10 (0 no effect, 10 complete control)
[28] = Rate 500 g/ha, Postemergence, scale 0 to 10, 0 no effect, 10 complete control
[29] = Rate 500 g/ha, listed under Postemergence (flood test species), scale 0 to 10, 0 no effect, 10 complete control

CC(C)N(C(=O)n1oc(=O)n(-c2ccc(Cl)cc2Cl)c1=O)c1ccc(F)cc1 [Compound 7, 4-(2,4-Dichlorophenyl)-N-(4-fluorophenyl)-N-(1-methylethyl)-3,5-dioxo-1,2,4-oxadiazolidine-2-carboxamide]
0: Cocklebur plant response rating [1, 5] | Plant response rating, Cocklebur [1, 7] | Cocklebur plant response rating [1, 8] | Cocklebur plant response rating [1, 9] | Cocklebur plant response rating ([1]; Rate 500 g/ha, Postemergence, 0 to 10 scale (0 no effect, 10 complete control)) | Plant response rating, Cocklebur [1, 10] | Barnyardgrass plant response rating [2, 6] | Barnyardgrass plant response rating [2, 11] | Barnyardgrass plant response rating [2, 12] | Barnyardgrass plant response rating ([2]; Rate 500 g/ha, Postemergence section of Table B, 0 to 10 scale (0 no effect, 10 complete control)) | Plant response rating, Barnyardgrass [2, 13] | Barnyardgrass plant response rating ([2]; Rate 1000 g/ha, Pre-emergence (as headed), scale 0 to 10) | Barnyardgrass plant response rating ([2]; Rate 2000 g/ha, Pre-emergence (as headed), scale 0 to 10, 0 no effect, 10 complete control) | Barnyardgrass plant response rating [2, 14] | S. Flatsedge plant response rating [3, 6] | S. Flatsedge plant response rating ([3]; Pre-emergence, Rate 1000 g/ha, scale 0 to 10 (0 no effect, 10 complete control)) | S. Flatsedge plant response rating [3, 11] | S. Flatsedge plant response rating [3, 12] | Plant response rating, S. Flatsedge [3, 13] | S. Flatsedge plant response rating ([3]; Rate 2000 g/ha, Pre-emergence (as headed), scale 0 to 10) | S. Flatsedge plant response rating [3, 14] | Sugarbeets plant response rating [4, 5] | Plant response rating, Sugarbeets [4, 15] | Plant response rating, Sugarbeets [4, 7] | Sugarbeets plant response rating [4, 8] | Sugarbeets plant response rating [4, 9] | Plant response rating, Sugarbeets [4, 10]
2: Cocklebur plant response rating [1, 6] | Sugarbeets plant response rating [4, 6]

CC(C)N(C(=O)n1oc(=O)n(CC2=NOCCO2)c1=O)c1ccc(Cl)cc1 [Compound 740]
2: Sugarbeets plant response rating [4, 20] | Sugarbeets plant response rating [4, 21]
0: Plant response rating, Cocklebur [1, 16] | Cocklebur plant response rating [1, 17] | Plant response rating, Cocklebur ([1]; Preemergence, Rate 125 g/ha, scale of 0 to 10 where 0 is no effect and 10 is complete control) | Cocklebur plant response rating [1, 18] | Cocklebur plant response rating [1, 19] | Cocklebur plant response rating [1, 22] | Barnyardgrass plant response rating [2, 23] | Barnyardgrass plant response rating [2, 24] | Barnyardgrass plant response rating [2, 25] | Barnyardgrass plant response rating [2, 26] | S. Flatsedge plant response rating [3, 23] | S. Flatsedge plant response rating [3, 24] | S. Flatsedge plant response rating [3, 25] | S. Flatsedge plant response rating [3, 26] | Plant response rating, Sugarbeets [4, 16] | Sugarbeets plant response rating [4, 17] | Sugarbeets plant response rating [4, 19]
5: Sugarbeets plant response rating [4, 22]
3: Cocklebur plant response rating [1, 20] | Cocklebur plant response rating [1, 21] | Sugarbeets plant response rating [4, 18]

CC(C)N(C(=O)n1oc(=O)n(Cc2ccccc2)c1=O)c1ccc(F)cc1F [Compound 79]
6: Sugarbeets plant response rating [4, 28]
0: Cocklebur plant response rating [1, 16] | Cocklebur plant response rating [1, 27] | Plant response rating, Cocklebur [1, 15] | Plant response rating, Cocklebur [1, 7] | Cocklebur plant response rating [1, 8] | Cocklebur plant response rating [1, 9] | Barnyardgrass plant response rating [2, 16] | Barnyardgrass plant response rating [2, 11] | S. Flatsedge plant response rating [3, 16] | S. Flatsedge plant response rating [3, 11] | Sugarbeets plant response rating [4, 27]
3: Barnyardgrass plant response rating [2, 14] | Sugarbeets plant response rating [4, 16]
4: S. Flatsedge plant response rating [3, 14] | Sugarbeets plant response rating [4, 5]
9: Barnyardgrass plant response rating [2, 29]
2: Cocklebur plant response rating [1, 5] | Cocklebur plant response rating [1, 28] | Sugarbeets plant response rating [4, 8]
1: Plant response rating, Sugarbeets [4, 15] | Plant response rating, Sugarbeets [4, 7]
10: S. Flatsedge plant response rating [3, 29]
